Usually IC50 stands for the concentration at which inhibition is half-maximal. In general, GI50 refers to the concentration that inhibits growth by half.

SMILES strings stand for the structures.

From US9890166B2, “Imidazopyrrolidine derivatives and their use in the treatment of disease” (NOVARTIS AG, priority 2013, dated 2018) come the findings set out here.

One experiment addresses BRD4 (His-Brd4(44-477)) (Homo sapiens (Human), UniProt O60885). The experiment is described as follows: TR-FRET in-vitro binding assay for BRD4. The conditions noted are these: single determination or n ≧ 2 independent determinations, read-out: Biochemical IC50 BRD4. The method, boiled down:
(§1)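 His-tagged BRD2, BRD3 and BRD4 fragments tested by TR-FRET at 8 compound concentrations, with DMSO stocks at 10 mM. Read on EnVision after 35 min incubation at 30° C.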

The next experiment concerns the target BRD2 (His-Brd2(60-472)) (Homo sapiens (Human), UniProt P25440). Nature of the experiment: TR-FRET in-vitro binding assay for BRD2. To be noted: single determination or n ≧ 2 independent determinations, read-out: Biochemical IC50 BRD2. In short, it runs like this:
as §1

The target in a further experiment is BRD3 (His-Brd3(20-477)) (Homo sapiens (Human), UniProt Q15059). Nature of the experiment: TR-FRET in-vitro binding assay for BRD3. The conditions noted are these: single determination or n ≧ 2 independent determinations, read-out: Biochemical IC50 BRD3. The method, boiled down:
as §1
For orientation: TR-FRET usually uses a lanthanide donor and a delayed reading to cut background.

Experiment [1] addresses CREBBP bromodomain (His-CREBBP(1081-1197)) (Homo sapiens (Human), UniProt Q92793). The experiment is described as follows: AlphaScreen in-vitro binding assay for CREBBP. The conditions noted are these: single determination or n ≧ 2 independent determinations, read-out: Biochemical IC50 CREBBP. In short, it runs like this:
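Detection used nickel-chelate acceptor plus streptavidin donor AlphaScreen beads, 1 h room temperature. Percent inhibition fitted by non-linear regression to IC50.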
On the technique in general: In Alpha technology, singlet oxygen from a donor bead excites a nearby acceptor bead.

The next experiment deals with THP-1 cells. The experiment is described as follows: Cell growth inhibition assay (CellTiter-Glo), THP-1.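 For all read-outs here: viability read as cellular ATP luminescence after 4 days, 3-fold dilution series from 10 µM, DMSO vehicle-treated cells taken as 100%, cell-free medium wells as −100%.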 The conditions noted are these: for GI50: Homo sapiens, THP-1, read-out: THP-1 GI50; for THP-1 TGI: THP-1 cells, total growth inhibition, CellTiter-Glo. Background: Cellular ATP, detected with luciferase, serves as a proxy for viable cell number.
In the next experiment the test system is K-562 cells. The experiment is described as follows: Cell growth inhibition assay (CellTiter-Glo), K-562.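 For all read-outs here: cellular ATP measured by luminescence after 4 days of exposure, 3-fold dilution series from 10 µM, DMSO vehicle-treated cells define 100%, cell-free medium wells −100%.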 The conditions noted are these: for GI50: Homo sapiens, K562, read-out: K-562 GI50; for K-562 TGI: K-562 cells, total growth inhibition, CellTiter-Glo.
The test system of a further experiment is MV-4-11 cells. Nature of the experiment: Cell growth inhibition assay (CellTiter-Glo), MV-4-11.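 For all read-outs here: cellular ATP luminescence after 4 days, 3-fold dilution series from 10 µM top dose, vehicle (0.1% DMSO) set to 100%, cell-free medium set to −100%, day 0 corrected.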 To be noted: for GI50: Homo sapiens, MV4-11, read-out: MV-4-11 GI50; for MV-4-11 TGI: MV-4-11 cells, total growth inhibition, CellTiter-Glo.

Chain of BRD3 (His-Brd3(20-477)) (Q15059 20-477): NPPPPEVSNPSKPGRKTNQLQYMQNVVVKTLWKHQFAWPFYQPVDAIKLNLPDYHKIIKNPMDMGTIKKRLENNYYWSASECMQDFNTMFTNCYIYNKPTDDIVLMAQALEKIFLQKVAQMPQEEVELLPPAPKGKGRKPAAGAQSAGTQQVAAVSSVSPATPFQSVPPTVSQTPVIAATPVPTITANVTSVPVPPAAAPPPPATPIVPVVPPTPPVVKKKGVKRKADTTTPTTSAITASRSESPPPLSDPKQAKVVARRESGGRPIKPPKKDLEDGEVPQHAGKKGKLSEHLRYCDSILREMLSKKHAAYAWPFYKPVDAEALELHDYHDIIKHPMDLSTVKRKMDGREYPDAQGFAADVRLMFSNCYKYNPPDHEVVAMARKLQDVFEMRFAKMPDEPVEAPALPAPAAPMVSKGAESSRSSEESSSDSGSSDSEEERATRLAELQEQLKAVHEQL
Chain of BRD2 (His-Brd2(60-472)) (P25440 60-472): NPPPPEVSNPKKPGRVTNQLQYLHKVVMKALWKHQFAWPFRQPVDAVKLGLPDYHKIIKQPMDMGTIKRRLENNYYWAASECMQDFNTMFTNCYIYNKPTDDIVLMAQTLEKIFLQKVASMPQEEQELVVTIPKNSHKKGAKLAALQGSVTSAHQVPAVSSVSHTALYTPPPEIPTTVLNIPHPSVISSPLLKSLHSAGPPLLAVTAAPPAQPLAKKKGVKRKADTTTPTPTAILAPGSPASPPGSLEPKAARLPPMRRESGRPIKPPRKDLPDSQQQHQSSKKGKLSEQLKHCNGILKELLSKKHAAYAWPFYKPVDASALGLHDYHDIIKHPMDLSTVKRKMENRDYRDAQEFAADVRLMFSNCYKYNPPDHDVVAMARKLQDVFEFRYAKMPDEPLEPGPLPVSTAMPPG
Chain of CREBBP bromodomain (His-CREBBP(1081-1197)) (Q92793 1081-1197): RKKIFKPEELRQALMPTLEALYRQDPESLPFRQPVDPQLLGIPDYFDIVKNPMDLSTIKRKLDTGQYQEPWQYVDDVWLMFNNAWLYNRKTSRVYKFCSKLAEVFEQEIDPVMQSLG

`COc1ccc(-c2nc3c(n2C(C)C)C(c2ccc(Cl)cc2)N(c2cc(C)c4nnc(C(F)F)n4n2)C3=O)cn1` (centres unmarked) [Example 149, 6-(4-chlorophenyl)-5-(3-(difluoromethyl)-8-methyl-[1,2,4]triazolo[4,3-b]pyridazin-6-yl)-1-isopropyl-2-(6-methoxypyridin-3-yl)-5,6-dihydropyrrolo[3,4-d]imidazol-4(1H)-one]: the IC50 was 16 nM on BRD4 (His-Brd4(44-477)), 22 nM at BRD2 (His-Brd2(60-472)), 21 nM at BRD3 (His-Brd3(20-477)) and above 37 µM in experiment [1]. Further, the GI50 in the experiment with THP-1 cells was determined as 33.3 nM; with K-562 cells, 148 nM; in the experiment on MV-4-11 cells it was 26.5 nM. The “THP-1 TGI” value with THP-1 cells is 0.0839 µM. Moreover, the “K-562 TGI” value with K-562 cells is above 10 µM. The “MV-4-11 TGI” value in the experiment with MV-4-11 cells was found to be 0.0435 µM.

As for `Cc1cc(N2C(=O)c3nc(C)n(C(C)C)c3C2c2ccc(Cl)cc2)nn2c(C(F)F)nnc12` (centres unmarked) [Example 150, 6-(4-chlorophenyl)-5-(3-(difluoromethyl)-8-methyl-[1,2,4]triazolo[4,3-b]pyridazin-6-yl)-1-isopropyl-2-methyl-5,6-dihydropyrrolo[3,4-d]imidazol-4(1H)-one], the IC50 was 38 nM at BRD4 (His-Brd4(44-477)), 94 nM on BRD2 (His-Brd2(60-472)), 39 nM on BRD3 (His-Brd3(20-477)) and above 37 µM in experiment [1]. Also, the 50% growth inhibitory concentration (GI50) stood at 17.3 nM in the experiment with THP-1 cells, 75.3 nM in the experiment with K-562 cells and 9.63 nM in the experiment with MV-4-11 cells. Also, the “THP-1 TGI” value with THP-1 cells was found to be 0.0464 µM. In addition, the “K-562 TGI” value in the experiment on K-562 cells was above 10 µM. Also, the “MV-4-11 TGI” value with MV-4-11 cells was 0.0242 µM.

With `COc1ncccc1-c1nc2c(n1C(C)C)[C@@H](c1ccc(Cl)cc1)N(c1cc(C)c3nnc(C(F)F)n3c1)C2=O` [Example 151, (R)-6-(4-chlorophenyl)-5-(3-(difluoromethyl)-8-methyl-[1,2,4]triazolo[4,3-a]pyridin-6-yl)-1-isopropyl-2-(2-methoxypyridin-3-yl)-5,6-dihydropyrrolo[3,4-d]imidazol-4(1H)-one], the IC50 on BRD4 (His-Brd4(44-477)) was 11 nM; on BRD2 (His-Brd2(60-472)), 14 nM; on BRD3 (His-Brd3(20-477)) it was 14 nM; in experiment [1], 13.9 µM. For the same molecule, the GI50 was found to be 6.85 nM in the experiment on THP-1 cells, 24.1 nM in the experiment with K-562 cells and 3.73 nM with MV-4-11 cells. Moreover, the “THP-1 TGI” value in the experiment with THP-1 cells was 0.01745 µM. In the experiment with K-562 cells, the “K-562 TGI” value is above 10 µM. Besides, the “MV-4-11 TGI” value in the experiment with MV-4-11 cells was determined as 0.008015 µM.

Take `COc1ncccc1-c1nc2c([nH]1)[C@@H](c1ccc(Cl)cc1)N(c1cc(C)c3nnc(C(F)F)n3c1)C2=O` [Example 153, (R)-6-(4-chlorophenyl)-5-(3-(difluoromethyl)-8-methyl-[1,2,4]triazolo[4,3-a]pyridin-6-yl)-2-(2-methoxypyridin-3-yl)-5,6-dihydropyrrolo[3,4-d]imidazol-4(1H)-one]: the IC50 on BRD4 (His-Brd4(44-477)) came out at 13 nM; at BRD2 (His-Brd2(60-472)), 25 nM; on BRD3 (His-Brd3(20-477)) it was 23 nM; in experiment [1], 28.9 µM. For the same molecule, the GI50 in the experiment on THP-1 cells was found to be 18.4 nM; in the experiment with K-562 cells, 95 nM; with MV-4-11 cells it was 25.6 nM. The “THP-1 TGI” value with THP-1 cells was 0.0443 µM. Besides, in the experiment on K-562 cells, the “K-562 TGI” value is above 10 µM. Besides, the “MV-4-11 TGI” value in the experiment with MV-4-11 cells is 0.0386 µM.

Regarding `COc1ccc(-c2nc3c(n2C(C)C)[C@@H](c2ccc(Cl)cc2)N(c2cc(C)c4nnn(C)c4n2)C3=O)cn1` [Example 154, (R)-6-(4-chlorophenyl)-5-(3,7-dimethyl-3H-[1,2,3]triazolo[4,5-b]pyridin-5-yl)-1-isopropyl-2-(6-methoxypyridin-3-yl)-5,6-dihydropyrrolo[3,4-d]imidazol-4(1H)-one], the half-inhibitory concentration (IC50) at BRD4 (His-Brd4(44-477)) is 19 nM; on BRD2 (His-Brd2(60-472)), 42 nM; at BRD3 (His-Brd3(20-477)), 19 nM; in experiment [1], above 37 µM. The GI50 is 4.68 nM with THP-1 cells, 21.4 nM with K-562 cells and 3.64 nM in the experiment on MV-4-11 cells. For the same molecule, in the experiment on THP-1 cells, the “THP-1 TGI” value is 0.0122 µM. For the same molecule, in the experiment with K-562 cells, the “K-562 TGI” value is above 10 µM. In the experiment with MV-4-11 cells, the “MV-4-11 TGI” value came to 0.008305 µM.
